Assay [1] concerns human macrophages. The assay is described as follows: Human macrophage caspase 1, IL-1β and lactate dehydrogenase. The following applies: summary table of bioactions. It is filed as cell-based. The protocol:
Human macrophages (1.5×10^4 cells/well) were incubated with RvT1 (10 pM-10 nM), 1:1 mixture RvT2 and RvT3 (10 pM-10 nM), RvT4 (10 pM-10 nM) or vehicle (0.1% EtOH in DPBS, 15 min, 37° C.), then E. coli (7.5×10^5 cells/well, in DPBS, 16 h, 37° C.). Caspase 1 levels were assessed in macrophages by flow cytometry after cell fixing and permeabilization, staining with an anti-caspase 1 (Abcam; 4° C., 30 min) and anti-rabbit-Alexa 488 conjugated antibody (Molecular Probes; 4° C., 30 min). IL-1β levels were determined in cell-free supernatants using an anti-human IL-1β ELISA (eBiosciences) following manufacturer's instructions. Lactate dehydrogenase activity was measured in cell-free supernatants assessing the formation of NADH from NAD+ using a Lactate Dehydrogenase Assay kit (Sigma) following manufacturer's instructions.

Assay [2] has as its system human macrophages. The assay is described as follows: Human macrophage phagocytosis, ROS and efferocytosis. Format: cell-based. The following applies: for In vitro: human macrophage efferocytosis of apoptotic neutrophils: summary table of bioactions; for In vitro: human macrophage and neutrophil intra-phagolysosomal ROS production / In vitro: human macrophage and neutrophil phagocytosis of E. coli: summary table, macrophages and neutrophils. As to the method:
Macrophages were prepared from peripheral blood mononuclear cells (PBMC) purchased from Children's Hospital Blood Bank, Boston, and phagocytosis was assessed as in^31. Briefly, macrophages (5×10^4 cells/well) were incubated with RvT1 (1 pM-10 nM), 1:1 mixture RvT2 and RvT3 (1 pM-10 nM), RvT4 (1 pM-10 nM) or vehicle (0.1% EtOH in DPBS) for 15 min at 37° C., then fluorescent labeled apoptotic cells were added and cells incubated 45 min at 37° C. Extracellular fluorescence was quenched using Trypan blue (1:15 dilution) and phagocytosis assessed using an M3 SpectraMax plate reader (Molecular Devices). In select experiments, macrophages (prepared as detailed above, 5×10^4 cells/well) or neutrophils (1×10^5 cells/well), obtained from human healthy volunteers and isolated as in ^31 in accordance with Partners Human Research Committee Protocol (number 1999P001297), were incubated with H2DCFDA (5 μM, 30 min, 37° C.), excess dye was washed off and cells incubated with RvT1 (1 pM-10 nM), 1:1 mixture RvT2 and RvT3 (1 pM-10 nM), RvT4 (1 pM-10 nM) or vehicle (0.1% EtOH in DPBS, 15 min, 37° C.), then incubated with E. coli (1:50 leukocytes to E. coli, 45 min, 37° C.). Intracellular reactive oxygen species were determined by measuring fluorescence using an M3 SpectraMax plate reader. To assess bacterial phagocytosis, macrophages (5×10^4 cells/well) or neutrophils (1×10^5 cells/well) were incubated with RvT1 (1 pM-10 nM), 1:1 mixture RvT2 and RvT3 (1 pM-10 nM), RvT4 (1 pM-10 nM) or vehicle (0.1% EtOH in DPBS, 15 min, 37° C.), then incubated with BacLight Green (Molecular Probes) labeled E. coli (1:50 leukocytes to E. coli, 45 min, 37° C.). Extracellular fluorescence was then quenched using Trypan blue (1:15 dilution), and phagocytosis was assessed using an M3 SpectraMax plate reader.

In assay [3] the test system is E. coli infections in mice. The assay is described as follows: E. coli peritonitis in mice. As to conditions: for In vivo: circulating platelet-leukocyte aggregates / In vivo: exudate pro-inflammatory eicosanoid levels during infections / In vivo: infection induced hypothermia / In vivo: macrophage efferocytosis of apoptotic neutrophils / In vivo: murine leukocyte phagocytosis of E. coli / In vivo: neutrophil recruitment during infections / In vivo: protective actions of atorvastatin in infections / In vivo: pyroptosis: summary table of bioactions. Format: in vivo. The protocol: All animal experiments were conducted in accordance with the Harvard Medical Area Standing Committee on Animals (protocol no. 02570). Mice (male FvB, 6-8 weeks old, Charles River, fed lab diet containing essential fatty acids as from supplier) were anesthetized with isoflurane and microbial peritonitis initiated. Briefly, test compounds or vehicle were injected i.p. or i.v. 5 min prior to live E. coli (serotype 06:K2:H1; 1×10^5 or 1×10^7 CFU/mouse). At designated time intervals mice were harvested, blood was collected via cardiac puncture in heparin, and peritoneal exudates were collected in 4 ml of PBS. The cellular composition in the exudates was determined using Turks solution and light microscopy, and by flow cytometry. For flow cytometry, exudate cells were incubated with anti-mouse CD16/CD32 (eBiosciences, 20 min, 4° C., in PBS containing 5% fetal calf serum-staining solution), followed by incubation with FITC-conjugated anti-mouse Ly6G antibody (clone: 1A8, eBiosciences), PE-conjugated anti-mouse F4/80 antibody (clone:BM8, eBiosciences) and PerCP-Cy5.5-conjugated anti-mouse CD11b antibody (clone:M1/70, eBiosciences) for 30 min (4° C., in staining solution). To assess bacterial phagocytosis in peritoneal exudate leukocytes, exudate cells were incubated with PerCP-Cy5.5-conjugated anti-mouse CD11b antibody (30 min, 4° C., in staining solution), then fixed and permeabilized using BD Perm/Wash™ Buffer (BD Biosciences) following manufacturer's instructions and incubated with FITC-conjugated anti-E. coli antibody (GenTex, 30 min, 4° C., in BD Perm/Wash™ Buffer). Efferocytosis in infectious exudates was assessed by incubating exudate leukocytes with PE-conjugated anti-mouse F4/80 antibody (30 min, 4° C., in staining solution), then fixed and permeabilized using BD Perm/Wash™ Buffer (BD Biosciences) and incubated with FITC-conjugated anti-mouse Ly6G antibody (30 min, 4° C., in BD Perm/Wash™ Buffer). Body temperatures were assessed using an Infrared thermometer (Fluke). Bacterial counts in peripheral blood and inflammatory exudates were determined by overnight cultures (37° C.) of serially diluted samples on LB agar plates. Caspase 1 levels were assessed by incubation of exudate cells with PerCP-Cy5.5-conjugated anti-mouse CD11b antibody (30 min, 4° C., in staining solution), then fixed and permeabilized using BD Perm/Wash™ Buffer (BD Biosciences), incubated with anti-caspase 1 antibody (Abcam, 30 min, 4° C., in BD Perm/Wash™ Buffer) followed by anti-rabbit Alexa 488 conjugated antibody (Life Technologies, 30 min, 4° C., in BD Perm/Wash™ Buffer). IL-1β levels were determined in cell-free supernatants using an anti-mouse IL-1β ELISA (Abcam) following manufacturer's instructions. Lactate dehydrogenase activity was measured in cell-free supernatants assessing the formation of NADH from NAD+ using a Lactate Dehydrogenase Assay kit (Sigma) following manufacturer's instructions.
In select experiments resolution indices were calculated as in ^27. Ψmax, maximal PMN numbers in exudates; Tmax, time point when PMN numbers reach maximum; R50, 50% of maximal PMN numbers; T50, time point when PMN numbers reduce to 50% of maximum; Ri (resolution interval), T50-Tmax, time period when 50% PMN are lost from the exudates. To assess the proresolving actions of the test products, these were administered 12 h after E. coli (10^5 CFU) inoculation, and resolution indices were assessed.
For some experiments, mice were administered via i.p. injection RvT1, RvT2, RvT3 and RvT4 (that were isolated as detailed below and combined as a mixture at a ratio of 2:1:1:8 respectively) 2 h after E. coli inoculation. Blood and lungs were harvested 6 h after E. Coli inoculation. Blood was employed to determine peripheral blood eicosanoid levels as detailed below.

Assay [4] has as its system nitric oxide synthase. The assay is described as follows: L-NAME and atorvastatin in E. coli inoculated mice, plasma RvT. It is filed as in vivo. The protocol: In a separate set of experiments, mice were inoculated with E. coli; after 60 min they were given L-NAME (24 mg/kg) and 5 min later atorvastatin (5 μg) via i.v. injection. Plasma was obtained after 5 h via cardiac puncture and LM levels were investigated by lipid mediator metabololipidomics. For all animal experiments mice were randomized to vehicle or treatment groups without blinding.

Assay [5] deals with human neutrophil-endothelial cell co-incubations. The assay is described as follows: Lipid mediator levels in human endothelial cell incubations and neutrophil-endothelial cell co-incubations. It is filed as cell-based. The following applies: atorvastatin 0.03-30 μM.
Description: Prior to sample extraction, deuterated internal standards (d4-PGE2, d5-LXA4, d4-RvD2, d4-LTB4 and d8-5S-HETE) representing regions of interest in the chromatographic analysis (500 pg each) were added to facilitate quantification. Extracted samples were analyzed by a LC-MS-MS system, Qtrap 6500 (AB Sciex) equipped with a Shimadzu SIL-20AC autoinjector and LC-20AD binary pump (Shimadzu Corp.). An Agilent Eclipse Plus C18 column (100×4.6 mm×1.8 μm) was used with a gradient of methanol/water/acetic acid of 55:45:0.01 (vol:vol:vol) that was ramped to 85:15:0.01 (vol:vol:vol) over 10 min and then to 98:2:0.01 (vol:vol:vol) for the next 8 min. This was subsequently maintained at 98:2:0.01 (vol:vol:vol) for 2 min. The flow rate was maintained at 0.4 ml/min. To monitor and quantify the levels of lipid mediators, a multiple reaction monitoring (MRM) method was developed with signature ion fragments (m/z) for each molecule monitoring the parent ion (Q1) and a characteristic daughter ion (Q3). […] Calibration curves were determined using a mixture of lipid mediators obtained via total organic synthesis, where these lipid mediators were not available (RvT1, RvT2, RvT3, RvT4 and 13-HDPA); known mediators with similar chromatographic properties (RvD2 for RvT1, RvD1 for RvT2 and RvT3; RvD5 for RvT4; 13-HDHA for 13-HDPA) were used. […]

Turning to “7,8,13-trihydroxy-docosapentaenoic [RvT2]”, in assay [1], the “In vitro: E. coli induced inflammasome components in human macrophages” value (“In vitro … in human macrophages” for short) is reported as “Reduces E. coli induced” and the “In vitro: E. coli induced macrophage pyroptosis” value is recorded as “Reduces E. coli induced”. In addition, in assay [2], the “In vitro: human macrophage efferocytosis of apoptotic neutrophils” value (from here on “In vitro: human macrophage efferocytosis”) is reported as “Stimulates human”; the “In vitro: human macrophage and neutrophil intra-phagolysosomal ROS production” value is reported as “Stimulates human”; the “In vitro: human macrophage and neutrophil phagocytosis of E. coli” value (shortened to “In vitro … of E. coli”) was “Stimulates human”. In assay [3], the “In vivo: circulating platelet-leukocyte aggregates” value is given as “Reduces circulating platelet -”, the “In vivo: exudate pro-inflammatory eicosanoid levels during infections” value is “Reduces exudate pro-”, the “In vivo: infection induced hypothermia” value is “Protects against infection” and the “In vivo: macrophage efferocytosis of apoptotic neutrophils” value (shortened to “In vivo: macrophage efferocytosis”) is listed as “Stimulates macrophage”. Besides, in assay [3], the “In vivo: murine leukocyte phagocytosis of E. coli” value (“In vivo … of E. coli” for short) is reported as “Stimulates murine leukocyte”, the “In vivo: neutrophil recruitment during infections” value was “Limits neutrophil recruitment”, the “In vivo: protective actions of atorvastatin in infections” value (shortened to “In vivo: protective actions”) is “Elaborates the protective” and the “In vivo: pyroptosis” value is recorded as “Reduces pyroptosis”.

In the case of `COC(=O)[C@@H](N)CCCNC(=N)N[N+](=O)[O-]` [L-NAME, L-NG-Nitroarginine Methyl Ester], the “atorvastatin-mediated increases in plasma RvT” value in assay [4] (L-NAME 24 mg/kg prior to atorvastatin 5 μg/mouse i.v., E. coli 1×10^5 CFU/mouse) is given as “significantly reversed”. Also, the “neutrophil recruitment to the peritoneum” value in assay [4] (L-NAME prior to atorvastatin during mouse infections) is “increased”.

As to `CCC=CCC=CC=CC(O)C(O)C=CC=CC(O)CCCCCC(=O)O` (centres unmarked) [RvT3, 7,12,13-trihydroxy-docosapentaenoic acid], in assay [1], the “In vitro … in human macrophages” value is on record as “Reduces E. coli induced” and the “In vitro: E. coli induced macrophage pyroptosis” value is reported as “Reduces E. coli induced”. In addition, in assay [2], the “In vitro: human macrophage efferocytosis” value is “Stimulates human”; the “In vitro: human macrophage and neutrophil intra-phagolysosomal ROS production” value is “Stimulates human”; the “In vitro … of E. coli” value was “Stimulates human”. For the same compound, in assay [3], the “In vivo: circulating platelet-leukocyte aggregates” value is reported as “Reduces circulating platelet-”, the “In vivo: exudate pro-inflammatory eicosanoid levels during infections” value is listed as “Reduces exudate pro-”, the “In vivo: infection induced hypothermia” value was “Protects against infection” and the “In vivo: macrophage efferocytosis” value is reported as “Stimulates macrophage”. In addition, in assay [3], the “In vivo … of E. coli” value is “Stimulates murine leukocyte”, the “In vivo: neutrophil recruitment during infections” value is on record as “Limits neutrophil”, the “In vivo: protective actions” value is listed as “Elaborates the protective” and the “In vivo: pyroptosis” value is “Reduces pyroptosis”.

`CC/C=C\C/C=C\C=C\C(O)C/C=C\C=C\C(O)CCCCCC(=O)O` (centres unmarked) [RvT4, 7,13-dihydroxy-docosapentaenoic acid]: in assay [1], the “In vitro … in human macrophages” value is listed as “Reduces E. coli induced” and the “In vitro: E. coli induced macrophage pyroptosis” value was “Reduces E. coli induced”. Moreover, in assay [2], the “In vitro: human macrophage efferocytosis” value is given as “Stimulates human”; the “In vitro: human macrophage and neutrophil intra-phagolysosomal ROS production” value is recorded as “Stimulates human”; the “In vitro … of E. coli” value is “Stimulates human”. In assay [3], the “In vivo: circulating platelet-leukocyte aggregates” value is “Reduces circulating platelet-”, the “In vivo: exudate pro-inflammatory eicosanoid levels during infections” value is “Reduces exudate pro-”, the “In vivo: infection induced hypothermia” value is on record as “Protects against infection” and the “In vivo: macrophage efferocytosis” value is recorded as “Stimulates macrophage”. Moreover, in assay [3], the “In vivo … of E. coli” value is listed as “Stimulates murine leukocyte”, the “In vivo: neutrophil recruitment during infections” value is given as “Limits neutrophil recruitment”, the “In vivo: protective actions” value is “Elaborates the protective” and the “In vivo: pyroptosis” value was “Reduces pyroptosis”.

With `CC(C)c1c(C(=O)Nc2ccccc2)c(-c2ccccc2)c(-c2ccc(F)cc2)n1CC[C@@H](O)C[C@@H](O)CC(=O)O` [atorvastatin], in assay [5], the “RvT in neutrophil-endothelial cell co-cultures” value was “dose-dependent increases”. In addition, the “PGI2 and 15-deoxy-Δ-12,14-PGJ2” value in assay [3] (treatment 2 h after E. coli, blood 6 h after E. coli) was “increases”. Besides, the “endothelin-1 and plasminogen activator inhibitor-1” value in assay [3] (treatment 2 h after E. coli, lung mRNA 6 h after E. coli) is recorded as “reduced”.

For the origin of these results see patent publication US11555006B2, “Elucidation of novel 13-series resolvins that increase with atorvastatin and clear infections” (The Brigham and Women's Hospital, Inc., priority 2015, dated 2023).
